Results from patent US4680285A, “Treatment of malignant tumors with 2-(β-D-ribofuranosylthiazole-4-carboxamide related compounds” (priority 1985, dated 1987).
Entries after “also recorded” stand apart in the source; their conditions may differ.

What was measured:
type 3 rhinovirus = settings: cited from earlier work
viruses = settings: test viruses; cited from earlier work
virus = settings: cited from earlier work
[1] = tested on: Lewis lung seed cells (brain tumors); test: Intracranially inoculated Lewis lung brain tumors in vivo, survival (Example 12); design: species or system AKD2 F1 mice; settings: for Treated Group Survival Time: control 9.6
Source text: For Example 12, compound 1 was given IP to a group of AKD2 F1 mice which were inflicted by intercranial inoculation with Lewis lung seed cells to establish brain tumors.
For this test, 32 control animals were used and no control animals survived beyond day eleven with a mean death data of day 9.6 for the controls. Water was used as the drug vehicle. For both the control group and the test group, tumors were induced on day zero with initiation of drug treatment on day one where compound 1 was given once daily for nine days. Test results are expressed as T/C as per example 5.

## NC(=O)c1csc([C@@H]2O[C@H](CO)[C@@H](O)[C@H]2O)n1 [Compound 1, 2-β-D-Ribofuranosylthiazole-4-Carboxamide]
Type 3 rhinovirus
  in vitro antiviral activity: only moderate
viruses
  spectrum of in vitro antiviral activity, preliminary: marginal in vitro activity
virus; in vivo antiviral tests
  number of deaths of test animals vs placebo control animals: equal to or exceeded the number of deaths of the placebo control animals
virus; in vivo
  in vivo antiviral activity: no useful in vivo antiviral activity; also recorded: negative
[1]; 25.0 mg/Kg IP once daily x9
  Percent Treated Animals/Control Animals: 172%
  Treated Group Survival Time: 16.6 days
[1]; 37.5 mg/Kg IP once daily x9
  Percent Treated Animals/Control Animals: 166%
  Treated Group Survival Time: 16.0 days
[1]; 75 mg/Kg IP once daily x9
  Percent Treated Animals/Control Animals: 185%
  Treated Group Survival Time: 19.0 days
[1]; 150 mg/Kg IP once daily x9
  Percent Treated Animals/Control Animals: 197%
  Treated Group Survival Time: 20.5 days
[1]; 300 mg/Kg IP once daily x9
  Percent Treated Animals/Control Animals: 213%
  Treated Group Survival Time: 20.5 days
[1]; 600 mg/Kg IP once daily x9
  Percent Treated Animals/Control Animals: 211%
  Treated Group Survival Time: 20.3 days
[1]; 700 mg/Kg IP once daily x9
  Percent Treated Animals/Control Animals: 211%
  Treated Group Survival Time: 20.3 days
[1]; 800 mg/Kg IP once daily x9
  Percent Treated Animals/Control Animals: 221%
  Treated Group Survival Time: 21.3 days
[1]; IP, once daily x9
  effect on brain tumors: reduction of the brain tumors
